According to ChEMBL document CHEMBL4145688, “Potent and Orally Bioavailable Inverse Agonists of RORγt Resulting from Structure-Based Design” (J Med Chem, 2018):
In brackets after ≈: the same amount, converted by molar mass.

Tests used:
[1] = molecular target: T1, Nuclear receptor ROR-gamma (Homo sapiens, UniProt P51449); assay: Inverse agonist activity at RORgammat in human TH17 cells assessed as inhibition of IL17 release incubated for 4 days by HTRF assay; assay type: cell-based
T1 sequence (P51449 whole entry): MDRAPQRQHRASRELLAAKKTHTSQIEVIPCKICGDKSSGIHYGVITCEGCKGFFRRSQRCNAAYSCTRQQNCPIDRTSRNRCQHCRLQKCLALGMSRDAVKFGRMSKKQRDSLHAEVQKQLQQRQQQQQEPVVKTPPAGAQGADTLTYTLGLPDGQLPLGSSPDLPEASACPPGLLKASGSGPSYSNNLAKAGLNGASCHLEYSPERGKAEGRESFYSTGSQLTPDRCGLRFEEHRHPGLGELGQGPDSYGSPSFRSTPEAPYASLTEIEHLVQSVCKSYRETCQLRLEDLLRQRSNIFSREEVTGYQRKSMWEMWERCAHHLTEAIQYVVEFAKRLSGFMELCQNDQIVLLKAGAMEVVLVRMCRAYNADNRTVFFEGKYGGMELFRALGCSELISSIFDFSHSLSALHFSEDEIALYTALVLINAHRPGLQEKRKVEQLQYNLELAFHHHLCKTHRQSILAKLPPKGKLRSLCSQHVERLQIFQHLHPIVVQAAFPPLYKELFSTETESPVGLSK

[2] = Distribution coefficient between 1-octanol and aqueous phosphate buffer, logD of the compound in pH 7.4 buffer; assay type: physicochemical; conditions: 1-octanol/aqueous phosphate buffer
[3] = Permeability from apical to basolateral side in human Caco2 cells; assay type: ADME, cell-based; conditions: for permeability: Caco-2
[4] = Permeability from basolateral to apical side in human Caco2 cells; assay type: ADME, cell-based; conditions: for permeability: Caco-2
[5] = Efflux ratio of permeability in human Caco2 cells; assay type: ADME, cell-based; conditions: Caco-2
[6] = Unbound fraction in human plasma by equilibrium dialysis; assay type: ADME, cell-free
[7] = Intrinsic clearance in rat hepatocytes assessed per million cells; assay type: ADME, cell-based, Hepatocyte; conditions: read-out: CLH
[8] = Stability in pH 5 buffer solution at 37 degC measured over 2 days; assay type: physicochemical; conditions: pH 5, 48 h
[9] = Stability in pH 7.4 buffer solution at 37 degC measured over 2 days; assay type: physicochemical; conditions: pH 7.4, 48 h
[10] = Stability in pH 8 buffer solution at 37 degC measured over 2 days; assay type: physicochemical; conditions: pH 8, 48 h
[11] = molecular target: T2, Nuclear receptor ROR-alpha (Homo sapiens, UniProt P35398); assay: Agonist activity at His6-tcs-human RORalpha LBD assessed as stimulation of biotinylated PGC1alpha (130 to 154 residues) peptide recruitment incubated for 1 hr by HTRF-FRET assay; conditions: read-out: IC50 (the source's name)
T2 sequence (P35398 whole entry): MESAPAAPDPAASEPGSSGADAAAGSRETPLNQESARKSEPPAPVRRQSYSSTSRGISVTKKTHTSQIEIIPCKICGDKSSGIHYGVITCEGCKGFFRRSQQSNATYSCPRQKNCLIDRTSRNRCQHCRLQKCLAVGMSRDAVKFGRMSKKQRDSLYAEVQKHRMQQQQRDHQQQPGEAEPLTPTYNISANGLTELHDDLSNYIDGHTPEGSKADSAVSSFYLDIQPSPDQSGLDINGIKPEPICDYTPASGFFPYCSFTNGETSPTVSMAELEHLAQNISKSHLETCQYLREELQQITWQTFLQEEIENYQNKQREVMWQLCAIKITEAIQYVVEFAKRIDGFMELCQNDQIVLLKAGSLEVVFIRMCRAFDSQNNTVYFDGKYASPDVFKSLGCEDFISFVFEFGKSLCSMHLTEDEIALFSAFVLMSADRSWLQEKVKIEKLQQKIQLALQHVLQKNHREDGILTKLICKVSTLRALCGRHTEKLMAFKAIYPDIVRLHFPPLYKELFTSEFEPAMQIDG

[12] = molecular target: T2, Nuclear receptor ROR-alpha; assay: Inverse agonist activity at His6-tcs-human RORalpha LBD assessed as inhibition of biotinylated PGC1alpha (130 to 154 residues) peptide recruitment incubated for 1 hr by HTRF-FRET assay
[13] = molecular target: T3, Nuclear receptor ROR-beta (Homo sapiens, UniProt Q92753); assay: Displacement of [3H]ATRA from 6H-AVI-GST-TEV-human RORbeta (T221 to K470 residues) pre-incubated for 30 mins before [3H]ATRA addition and measurted ater 18 to 23 hrs by scintillation proximity assay
T3 sequence (Q92753 whole entry): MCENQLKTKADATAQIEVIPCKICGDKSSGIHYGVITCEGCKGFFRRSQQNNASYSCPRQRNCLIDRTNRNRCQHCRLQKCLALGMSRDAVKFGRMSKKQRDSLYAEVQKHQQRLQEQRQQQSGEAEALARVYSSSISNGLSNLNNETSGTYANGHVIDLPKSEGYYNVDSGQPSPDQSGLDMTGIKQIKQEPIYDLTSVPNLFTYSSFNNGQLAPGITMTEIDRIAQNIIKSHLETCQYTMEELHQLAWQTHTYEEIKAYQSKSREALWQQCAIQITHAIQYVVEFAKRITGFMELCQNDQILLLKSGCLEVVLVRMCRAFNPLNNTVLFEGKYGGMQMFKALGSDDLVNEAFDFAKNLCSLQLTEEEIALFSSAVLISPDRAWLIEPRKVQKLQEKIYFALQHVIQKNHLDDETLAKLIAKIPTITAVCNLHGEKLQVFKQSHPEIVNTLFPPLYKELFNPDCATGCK

hERG (KCNH2) = hERG (KCNH2) (Homo sapiens, UniProt Q12809); assay: Inhibition of human ERG at 11 uM
[14] = Intrinsic clearance in human hepatocytes assessed per million cells; assay type: ADME, cell-based, Hepatocyte; conditions: read-out: CLH
[15] = Clearance in Han Wistar rat at 0.5 mg/kg, iv or 1 mg/kg, po; assay type: ADME, organism-based; conditions: in vivo
[16] = Half life in Han Wistar rat at 0.5 mg/kg, iv or 1 mg/kg, po; assay type: ADME, organism-based; conditions: in vivo
[17] = Volume of distribution at steady state in Han Wistar rat at 0.5 mg/kg, iv or 1 mg/kg, po; assay type: ADME, organism-based; conditions: in vivo, read-out: Vdss
[18] = Oral bioavailability in Han Wistar rat at 1 mg/kg; assay type: ADME, organism-based; conditions: in vivo
[19] = Oral absorption in Han Wistar rat at 1 mg/kg; assay type: ADME, organism-based; conditions: in vivo, read-out: Fabs
[20] = molecular target: T1, Nuclear receptor ROR-gamma
Description: Displacement of [3H]-2-(4-(ethylsulfonyl)phenyl)-N-(4-(2-(methoxymethyl)phenyl)thiophen-2-yl)acetamide from purified N-(HN)6-GST-TCS-human RORgammat (258 to 518 residues) incubated for 16 hrs by scintillation proximity assay

[21] = molecular target: T1, Nuclear receptor ROR-gamma; remark: listed apart in the source
physchem = conditions: aqueous buffer, pH 7.4
Description: Solubility in aqueous buffer at pH 7.4

[22] = Cytotoxicity in human Th17 cells assessed as effect on cell viability by cell-titer-Glo luminescent cell viability assay relative to control; assay type: cell-based; conditions: read-out: Efficacy
[23] = Selectivity index, ratio of cytotoxicity in human Th17 cells to IC50 for inverse agonist activity at RORgammat in human TH17 cells assessed as inhibition of IL17 release; assay type: toxicity, cell-based
Homo sapiens = assay: Reduction in psoriasis-severity index in psoriasis patient dosed orally during phase 2a study; assay type: functional; set-up: scale not given: the % may be the effect or the level left

Chain of hERG (KCNH2) (Q12809 whole entry): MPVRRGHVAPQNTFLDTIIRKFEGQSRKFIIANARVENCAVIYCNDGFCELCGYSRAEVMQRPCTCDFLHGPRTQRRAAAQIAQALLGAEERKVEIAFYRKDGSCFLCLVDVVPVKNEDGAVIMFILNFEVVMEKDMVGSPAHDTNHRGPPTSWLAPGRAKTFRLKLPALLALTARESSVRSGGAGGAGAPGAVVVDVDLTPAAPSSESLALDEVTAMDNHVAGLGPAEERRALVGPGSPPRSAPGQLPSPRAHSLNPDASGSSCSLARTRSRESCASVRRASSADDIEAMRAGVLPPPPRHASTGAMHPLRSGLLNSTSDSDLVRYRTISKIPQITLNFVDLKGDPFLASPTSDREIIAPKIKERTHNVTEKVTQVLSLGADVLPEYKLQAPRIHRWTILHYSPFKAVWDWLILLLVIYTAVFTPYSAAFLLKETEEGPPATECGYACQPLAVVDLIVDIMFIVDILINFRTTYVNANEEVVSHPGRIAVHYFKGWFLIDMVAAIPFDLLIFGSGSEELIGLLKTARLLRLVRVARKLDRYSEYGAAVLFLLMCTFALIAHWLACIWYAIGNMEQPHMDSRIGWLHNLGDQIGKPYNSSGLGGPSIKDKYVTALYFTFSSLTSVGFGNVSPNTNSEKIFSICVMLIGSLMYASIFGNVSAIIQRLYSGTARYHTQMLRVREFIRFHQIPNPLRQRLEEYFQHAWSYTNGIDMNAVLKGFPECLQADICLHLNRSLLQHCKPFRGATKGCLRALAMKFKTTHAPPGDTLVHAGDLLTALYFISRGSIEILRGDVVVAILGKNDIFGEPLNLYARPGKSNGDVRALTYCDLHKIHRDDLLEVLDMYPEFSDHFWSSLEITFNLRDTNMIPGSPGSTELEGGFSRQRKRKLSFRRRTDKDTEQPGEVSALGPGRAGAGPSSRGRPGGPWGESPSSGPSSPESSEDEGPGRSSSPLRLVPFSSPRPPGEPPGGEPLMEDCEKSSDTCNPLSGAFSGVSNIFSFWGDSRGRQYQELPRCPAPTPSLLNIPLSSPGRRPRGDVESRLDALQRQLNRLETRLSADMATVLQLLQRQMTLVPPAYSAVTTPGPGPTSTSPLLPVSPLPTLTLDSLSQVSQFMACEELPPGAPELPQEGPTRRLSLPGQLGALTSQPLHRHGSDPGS

SMILES	IC50 [1] [nM]	logD [2]	fraction unbound [6]	hepatocyte CLint [7] [µL/min/1e6 cells]	EC50 [11] [nM]	IC50 [12] [nM]	IC50 [13] [nM]	hepatocyte CLint [14] [µL/min/1e6 cells]	clearance [15] [mL/min/kg]	half-life [16] [h]	Vd [17] [L/kg]	bioavailability [18] [%]	Fa [19] [%]	IC50 [20] [nM]	IC50 [21] [nM]	solubility (physchem) [µM]	permeability [3]	permeability [4]	Ratio [5]	inhibition at 11 µM (hERG (KCNH2)) [%]	other results
CCS(=O)(=O)c1ccc(C(NC(C)=O)C(=O)Nc2cc(-c3cc(C#N)cnc3OCC(F)(F)F)cs2)cc1 (centres undefined)	49	3.7	0.002	< 1	> 33000	600	> 10000							7	72	3.6 (≈ 2.04 µg/mL)				3	
CCS(=O)(=O)c1ccc(CC(=O)Nc2cc(-c3cccnc3OCc3ccc(OC(F)(F)F)cc3)cs2)cc1	25		< 0.0002	40	> 33000	> 33000	> 10000	8.6	46.5	1.4	3.8	10	30	7	30	0.7 (≈ 0.404 µg/mL)	Impermeable	Impermeable	Impermeable	0	Emax [22]: 40%; selectivity ratio [23]: 100
CCS(=O)(=O)c1ccc(CC(=O)Nc2cc(-c3cc(C#N)cnc3OCC(F)(F)F)cs2)cc1	65		0.0006	7.5	> 33000	6200		5.9	0.8	4.4	0.23	36	36	2	30	0.2 (≈ 0.102 µg/mL)	Impermeable	Impermeable	Impermeable	47	
CCS(=O)(=O)c1ccc(CC(=O)Nc2cc(-c3cccnc3Oc3ccc(OC(F)(F)F)cc3)cs2)cc1	144		< 0.001	20	> 33000	> 33000		11.9	24	1.6	2.8	45	67	33		2.5 (≈ 1.41 µg/mL)	Impermeable	Impermeable	Impermeable	14	
CCS(=O)(=O)c1ccc(CNC(=O)c2cnc3c(c2)CN(C[C@H]2CC[C@H](C(F)(F)F)CC2)[C@H]3C(C)C)nc1																					Activity (Homo sapiens): 24%

Further lines, with some results ahead:

IC50 [1] [nM]	logD [2]	fraction unbound [6]	hepatocyte CLint [7] [µL/min/1e6 cells]	EC50 [11] [nM]	IC50 [12] [nM]	IC50 [13] [nM]	hepatocyte CLint [14] [µL/min/1e6 cells]	clearance [15] [mL/min/kg]	half-life [16] [h]	Vd [17] [L/kg]	bioavailability [18] [%]	Fa [19] [%]	IC50 [20] [nM]	IC50 [21] [nM]	solubility (physchem) [µM]	permeability [3]	permeability [4]	Ratio [5]	SMILES	inhibition at 11 µM (hERG (KCNH2)) [%]	other results
11	4.7	0.001	8.9 to 12	> 33000	9400	> 10000	8.5	12	4.3	2.4	< 1	< 1.2	3	34	0.3 (≈ 0.19 µg/mL)				CCS(=O)(=O)c1ccc([C@@H](NC(C)=O)C(=O)Nc2cc(-c3cccnc3OCc3ccc(OC(F)(F)F)cc3)cs2)cc1	8	Papp A→B ([3]; Caco-2, read-out: permeability): < 0.001 ×10⁻⁶ cm/s; Papp B→A ([4]; Caco-2, read-out: permeability): 42 ×10⁻⁶ cm/s; efflux ratio [5]: > 1500; Stability [8]: Stable; Stability [9]: Stable; Stability [10]: Stable
23	4.7		18										270	3530					CCS(=O)(=O)c1ccc([C@H](NC(C)=O)C(=O)Nc2cc(-c3cccnc3OCc3ccc(OC(F)(F)F)cc3)cs2)cc1		Stability [8]: Stable; Stability [9]: Stable; Stability [10]: Stable
